21 compounds from patent publication US6608086B2, “Dihydropyridines and new uses thereof” (Synaptic Pharmaceutical Corporation, priority 1993, dated 2003) can be followed below.

SMILES strings stand for the structures. pKi: −log10 of the molar value. Counter-ions that a name gives are not always drawn. Like-named read-outs stand apart in the source and are kept apart here.

Test [1] has as its target T1, α2A receptor (Homo sapiens, UniProt P08913).
T1 construct: host or cells: LM(tk-) cells, line L-α2A
T1 sequence (P08913 1-465): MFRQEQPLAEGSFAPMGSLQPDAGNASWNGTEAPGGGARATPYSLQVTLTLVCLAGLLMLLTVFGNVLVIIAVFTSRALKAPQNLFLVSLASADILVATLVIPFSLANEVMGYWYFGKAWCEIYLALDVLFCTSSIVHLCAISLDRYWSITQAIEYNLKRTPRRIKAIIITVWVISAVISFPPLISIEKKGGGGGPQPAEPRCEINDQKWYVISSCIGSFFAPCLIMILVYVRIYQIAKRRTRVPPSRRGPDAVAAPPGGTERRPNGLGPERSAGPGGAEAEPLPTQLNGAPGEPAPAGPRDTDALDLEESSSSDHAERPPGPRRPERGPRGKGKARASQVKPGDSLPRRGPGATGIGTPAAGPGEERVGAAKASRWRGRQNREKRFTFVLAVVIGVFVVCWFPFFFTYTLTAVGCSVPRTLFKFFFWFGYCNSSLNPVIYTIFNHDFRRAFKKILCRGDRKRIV
The test can be described thus: Competition binding, [3H]rauwolscine, human α2A receptor. Conditions: for Ki: [3H]rauwolscine, read-out: pKi alpha-2 2a (converted). Summed up: (§1)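 Lysates of LM(tk−) cells stably expressing each α2 subtype were suspended in 25 mM glycylglycine buffer (pH 7.6 at room temperature). Equilibrium competition binding used 0.5 nM [3H]rauwolscine, with nonspecific binding defined by 10 μM phentolamine; bound radioligand was separated by GF/B filtration.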

Test [2] deals with T2, α2C receptor (Homo sapiens, UniProt P18825).
T2 construct: host or cells: LM(tk-) cells, line L-α2C
T2 sequence (P18825 1-462): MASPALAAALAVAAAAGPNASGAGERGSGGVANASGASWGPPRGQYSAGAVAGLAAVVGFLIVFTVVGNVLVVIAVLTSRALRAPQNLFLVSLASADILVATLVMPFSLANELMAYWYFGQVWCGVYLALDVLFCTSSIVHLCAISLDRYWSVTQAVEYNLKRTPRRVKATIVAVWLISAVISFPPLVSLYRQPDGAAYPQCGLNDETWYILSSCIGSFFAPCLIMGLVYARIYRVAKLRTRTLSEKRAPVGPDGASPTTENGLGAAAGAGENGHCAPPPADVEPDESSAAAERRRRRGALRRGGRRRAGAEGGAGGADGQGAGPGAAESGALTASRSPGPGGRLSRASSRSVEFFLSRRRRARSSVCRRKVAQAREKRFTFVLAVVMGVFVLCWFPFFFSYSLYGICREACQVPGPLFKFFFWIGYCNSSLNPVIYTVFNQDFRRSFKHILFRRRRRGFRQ
The test can be described thus: Competition binding, [3H]rauwolscine, human α2C receptor. Conditions: for pKi: pKi alpha-2 2c; for Ki: read-out: pKi alpha-2 2c (converted). Summed up:
as §1

Test [3] addresses T3, L-type calcium channel (Rattus norvegicus, UniProt P22002).
T3 construct: membrane fragments of rat cardiac muscle; from tissue; host or cells: rat cardiac muscle membranes
The test can be described thus: Competition binding of [3H]nitrendipine to membrane fragments of rat cardiac muscle. Conditions: for Ki: [3H]nitrendipine, read-out: pKi Ca (converted); for pKi: pKi Ca.

Where [4] appears, read: human α2A receptor, LM(tk−) cells.
Setting [5] is: [3H]rauwolscine, human α2C receptor, LM(tk−) cells.
Where [6] appears, read: rat cardiac muscle membrane fragments, L-type calcium channel.
Setting [7] is: LM(tk-) cell line L-α2A, SEM and n in lines below.
Setting [8] is: [3H]rauwolscine, LM(tk-) cell line L-α2C, SEM and n in lines below.
Setting [9] is: rat cardiac muscle membranes, SEM and n in lines below.

T3 sequence (P22002 whole entry, other chains not shown, the tested form may be a part): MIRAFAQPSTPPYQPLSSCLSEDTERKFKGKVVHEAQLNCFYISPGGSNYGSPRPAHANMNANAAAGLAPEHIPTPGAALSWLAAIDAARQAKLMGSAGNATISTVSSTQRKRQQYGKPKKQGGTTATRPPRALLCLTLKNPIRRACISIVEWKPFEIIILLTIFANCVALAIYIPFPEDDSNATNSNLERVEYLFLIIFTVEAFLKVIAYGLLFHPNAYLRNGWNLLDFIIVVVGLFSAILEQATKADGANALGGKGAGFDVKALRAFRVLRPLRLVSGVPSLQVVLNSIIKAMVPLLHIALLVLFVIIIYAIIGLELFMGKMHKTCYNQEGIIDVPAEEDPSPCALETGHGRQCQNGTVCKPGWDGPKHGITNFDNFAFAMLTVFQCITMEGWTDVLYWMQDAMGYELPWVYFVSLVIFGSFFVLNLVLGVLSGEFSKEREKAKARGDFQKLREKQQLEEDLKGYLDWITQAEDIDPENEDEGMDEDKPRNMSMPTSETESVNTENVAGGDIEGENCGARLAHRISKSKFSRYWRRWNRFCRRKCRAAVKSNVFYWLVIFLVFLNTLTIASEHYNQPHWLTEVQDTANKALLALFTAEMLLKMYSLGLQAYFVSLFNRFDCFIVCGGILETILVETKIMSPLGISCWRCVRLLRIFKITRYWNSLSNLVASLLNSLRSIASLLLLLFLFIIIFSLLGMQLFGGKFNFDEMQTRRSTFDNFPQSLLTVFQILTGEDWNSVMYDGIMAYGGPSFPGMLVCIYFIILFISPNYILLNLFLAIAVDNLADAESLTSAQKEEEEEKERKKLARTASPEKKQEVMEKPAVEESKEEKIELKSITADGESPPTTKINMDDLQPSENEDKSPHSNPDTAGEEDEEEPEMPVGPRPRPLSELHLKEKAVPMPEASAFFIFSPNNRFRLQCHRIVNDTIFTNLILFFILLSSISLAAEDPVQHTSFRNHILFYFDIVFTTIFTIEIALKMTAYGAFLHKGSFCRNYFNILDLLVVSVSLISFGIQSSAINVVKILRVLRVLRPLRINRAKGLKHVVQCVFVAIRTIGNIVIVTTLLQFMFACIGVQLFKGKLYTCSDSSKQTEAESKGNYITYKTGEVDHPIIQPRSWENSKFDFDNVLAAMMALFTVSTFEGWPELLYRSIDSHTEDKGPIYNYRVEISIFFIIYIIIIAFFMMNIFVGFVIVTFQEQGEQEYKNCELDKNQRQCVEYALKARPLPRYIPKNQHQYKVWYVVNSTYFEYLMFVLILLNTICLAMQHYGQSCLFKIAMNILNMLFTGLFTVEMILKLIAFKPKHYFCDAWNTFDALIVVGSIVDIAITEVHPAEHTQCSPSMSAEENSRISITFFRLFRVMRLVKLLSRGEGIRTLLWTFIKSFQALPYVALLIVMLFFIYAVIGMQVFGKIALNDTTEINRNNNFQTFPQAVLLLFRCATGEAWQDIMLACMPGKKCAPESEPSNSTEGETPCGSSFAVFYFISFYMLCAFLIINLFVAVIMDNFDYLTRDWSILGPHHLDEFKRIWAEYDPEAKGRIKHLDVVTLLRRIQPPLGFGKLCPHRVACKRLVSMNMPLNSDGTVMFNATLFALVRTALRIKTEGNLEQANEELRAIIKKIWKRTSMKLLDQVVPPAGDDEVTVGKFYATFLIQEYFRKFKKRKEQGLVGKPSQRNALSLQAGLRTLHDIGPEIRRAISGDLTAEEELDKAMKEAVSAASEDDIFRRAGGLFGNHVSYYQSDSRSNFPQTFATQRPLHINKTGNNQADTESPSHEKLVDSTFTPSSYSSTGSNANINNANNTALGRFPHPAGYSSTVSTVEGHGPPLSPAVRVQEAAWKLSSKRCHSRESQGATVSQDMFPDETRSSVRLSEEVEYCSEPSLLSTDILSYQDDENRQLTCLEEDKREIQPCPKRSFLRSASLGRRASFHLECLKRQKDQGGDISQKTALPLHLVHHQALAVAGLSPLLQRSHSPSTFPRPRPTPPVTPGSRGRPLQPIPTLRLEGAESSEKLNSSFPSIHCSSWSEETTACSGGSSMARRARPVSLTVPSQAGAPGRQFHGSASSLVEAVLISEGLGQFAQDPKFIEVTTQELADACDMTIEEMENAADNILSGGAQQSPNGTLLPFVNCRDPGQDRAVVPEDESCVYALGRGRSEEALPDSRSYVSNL
T3 sequence (P54290 25-944 partner limits assumed, other chains not shown): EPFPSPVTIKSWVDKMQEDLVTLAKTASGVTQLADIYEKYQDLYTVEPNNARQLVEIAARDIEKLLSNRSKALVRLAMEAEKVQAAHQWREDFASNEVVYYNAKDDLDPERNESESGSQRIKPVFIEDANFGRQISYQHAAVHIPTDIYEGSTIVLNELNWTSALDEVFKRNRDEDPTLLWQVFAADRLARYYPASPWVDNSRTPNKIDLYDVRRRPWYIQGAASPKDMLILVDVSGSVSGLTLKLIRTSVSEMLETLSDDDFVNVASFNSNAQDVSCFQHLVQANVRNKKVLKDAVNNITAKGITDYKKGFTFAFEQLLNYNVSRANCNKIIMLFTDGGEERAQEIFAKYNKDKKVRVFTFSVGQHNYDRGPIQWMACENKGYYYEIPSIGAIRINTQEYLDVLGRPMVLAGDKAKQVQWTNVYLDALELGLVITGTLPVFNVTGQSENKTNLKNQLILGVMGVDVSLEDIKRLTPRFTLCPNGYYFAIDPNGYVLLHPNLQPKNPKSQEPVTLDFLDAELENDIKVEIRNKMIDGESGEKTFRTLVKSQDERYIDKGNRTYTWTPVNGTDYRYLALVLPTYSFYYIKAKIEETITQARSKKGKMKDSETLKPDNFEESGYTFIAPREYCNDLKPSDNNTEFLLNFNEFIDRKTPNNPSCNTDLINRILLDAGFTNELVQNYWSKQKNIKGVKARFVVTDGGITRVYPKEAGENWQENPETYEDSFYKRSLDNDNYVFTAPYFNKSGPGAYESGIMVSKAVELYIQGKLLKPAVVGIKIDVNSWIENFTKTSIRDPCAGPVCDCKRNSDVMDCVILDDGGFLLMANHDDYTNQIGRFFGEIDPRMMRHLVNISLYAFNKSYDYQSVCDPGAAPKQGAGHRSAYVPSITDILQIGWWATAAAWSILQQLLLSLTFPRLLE
T3 sequence (P54290 945-1091 partner limits assumed, other chains not shown): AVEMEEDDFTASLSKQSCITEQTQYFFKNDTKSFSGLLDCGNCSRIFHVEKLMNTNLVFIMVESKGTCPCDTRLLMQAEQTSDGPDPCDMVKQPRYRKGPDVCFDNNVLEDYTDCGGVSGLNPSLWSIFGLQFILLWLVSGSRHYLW

Usually pKi stands for the Ki on a negative log10 scale, so that one unit is a factor of ten. On to `CCC1=C(C(N)=O)C(c2ccc([N+](=O)[O-])cc2)C(C(=O)NCCCN2CCC(C#N)(c3ccccc3)CC2)=C(CC)N1` (racemic) [(±)-102, 5-Carboxamido-3-{N-[(4-cyano-4-phenylpiperidin-1-ly)propyl]carboxamido-2,6-diethyl-1,4-dihydro-4-(4-nitrophenyl)pyridine hydrochloride hydrate], for which the Ki was 2.88 µM in test [1] (setting [4]) and 72.4 µM in test [3] (setting [6]). For the same compound, the negative logarithm of the Ki (pKi) in test [2] (setting [5]) was 5.76.

With `CCC1=C(C(N)=O)C(c2ccc([N+](=O)[O-])cc2)C(C(=O)NCCCN2CCC(C#N)(c3ccccc3)CC2)=C(CC)N1` (single isomer, unassigned; (+)) [(+)-102], the Ki in test [1] (setting [4]) was 3.89 µM; in test [3] (setting [6]), 1000 µM. Also, the negative-log Ki (pKi) in test [2] (setting [5]) is 5.48.

As to `CCC1=C(C(N)=O)C(c2ccc([N+](=O)[O-])cc2)C(C(=O)NCCCN2CCC(C#N)(c3ccccc3)CC2)=C(CC)N1` (single isomer, unassigned; (-)) [(−)-102], the Ki in test [1] (setting [4]) was 1.91 µM; in test [3] (setting [6]) it was 0.55 µM. Besides, the pKi in test [2] (setting [5]) was 5.98.

Regarding `COC(=O)C1=C(C)NC(C)=C(C(=O)NCCCN2CCC(c3ccccc3)(c3ccccc3)CC2)C1c1ccc(C(F)(F)F)cc1` (stereo not shown) [Example 1], the pKi in test [1] was 5.62; in test [2] it was 6.77; in test [3], 5.18.

For `CCC1=C(C(=O)NCCCN2CCC(c3ccccc3)(c3ccccc3)CC2)C(c2ccc([N+](=O)[O-])cc2)C(C(=O)OCc2ccccc2)=C(C)N1` (stereo not shown) [Example 4, 5-Benzyloxycarbonyl-2-ethyl-1,4-dihydro-6-methyl-4-(4-nitrophenyl)-3-(N-(3-(4,4-diphenylpiperidin-1-yl)propyl)carboxamido) pyridine, Hydrochloride Salt, Hydrate], the Ki in test [1] (setting [7]) was 0.55 µM; in test [2] (setting [8]), 0.501 µM; in test [3] (setting [9]), 0.977 µM.

Take `COC(=O)C1=C(C)NC(C)=C(C(=O)NCCCN2CCC(c3ccccc3)(c3ccccc3)CC2)C1c1ccncc1` (stereo not shown) [Example 5, 1,4-Dihydro-5-methoxycarbonyl-2,6-dimethyl-3-(N-(3-(4,4-diphenylpiperidin-1-yl)propyl)carboxamido)-4-(4-pyridyl)pyridine]: the pKi in test [1] was 5.65; in test [2], 4.61; in test [3], 5.34.

In the case of `COC(=O)C1=C(C)NC(C)=C(C(=O)NCCCN2CCC(c3ccccc3)(c3ccccc3)CC2)C1C1CCCCC1` (stereo not shown) [Example 6], the pKi in test [1] is 6.08; in test [2], 6.62; in test [3], 5.80.

As for `COC(=O)C1=C(C)NC(C)=C(C(=O)NCCCN2CCC(c3ccccc3)(c3ccccc3)CC2)C1c1ccc(-c2ccccc2)cc1` (stereo not shown) [Example 7], the pKi in test [1] was 5.42; in test [2], 5.91; in test [3] it was 6.06.

For `COC(=O)C1=C(C)NC(C)=C(C(=O)NCCCN2CCC(c3ccccc3)(c3ccccc3)CC2)C1Cc1ccccc1` (stereo not shown) [Example 8, 4-Benzyl-1,4-dihydro-3-methoxycarbonyl-2,6-dimethyl-5-(N-(3-(4,4-diphenylpiperidin-1-yl)propyl)carboxamido)pyridine], the Ki is 0.832 µM in test [1] (setting [7]), 0.339 µM in test [2] (setting [8]) and 11.5 µM in test [3] (setting [9]).

For the compound `COC(=O)C1=C(C)NC(C)=C(C(=O)NCCCN2CCC(c3ccccc3)(c3ccccc3)CC2)C1c1cc[n+]([O-])cc1` (stereo not shown) [Example 9, 1,4-Dihydro-3-methoxycarbonyl-2,6-Dimethyl-4-(1-oxido-4-pyridyl)-5-(N-(3-(4,4-diphenylpiperidin-1-yl)propyl)carboxamido)pyridine], the Ki in test [1] (setting [7]) was 2.19 µM; in test [2] (setting [8]) it was 1.32 µM; in test [3] (setting [9]), 19.1 µM.

Turning to `COC(=O)C1=C(C)NC(C)=C(C(=O)NCCCN2CCC(c3ccccc3)(c3ccccc3)CC2)C1c1cccnc1` (stereo not shown) [Example 14, 1,4-Dihydro-3-methoxycarbonyl-2.6-dimethyl-5-(N-(3-(4,4-diphenylpiperidin-1-yl)propyl)carboxamido)-4-(3-pyridyl)pyridine], the Ki in test [1] (setting [7]) was 2.88 µM; in test [2] (setting [8]) it was 1.1 µM.

With `CCC1=C(C(N)=O)C(c2ccc([N+](=O)[O-])cc2)C(C(=O)NCCCN2CCC(c3ccccc3)(c3ccccc3)CC2)=C(C)N1` (stereo not shown) [Example 41, 3-Carboxamido-2-ethyl-1,4-dihydro-6-methyl-4-(4-nitrophenyl)-3-{N-[3-(4,4-diphenylpiperidin-1-yl)propyl]}carboxamidopyridine], the results for the Ki in test [1] (setting [7]) and in test [2] (setting [8]) were 0.427 µM and 0.437 µM, respectively.

As to `CCC1=C(C(N)=O)C(c2ccc([N+](=O)[O-])cc2)C(C(=O)NCCCN2CCC(c3ccccc3)(c3ccccc3)CC2)=C(CC)N1` (stereo not shown) [Example 42, 5-carboxamido-2,6-diethyl-1,4-dihydro-4-(4-nitrophenyl)-3-{N-[3-(4,4-diphenylpiperidin-1-yl)propyl]}carboxamidopyridine], the Ki in test [1] (setting [7]) was 0.324 µM. In test [2] (setting [8]), this compound had a negative-log Ki (pKi) of 6.77.

With `CCC1=C(C(N)=O)C(c2ccc(S(C)(=O)=O)cc2)C(C(=O)NCCCN2CCC(c3ccccc3)(c3ccccc3)CC2)=C(CC)N1` (stereo not shown) [Example 116, 5-Carboxamido-2,6-diethyl-1,4-dihydro-4-(4-methanesulfonylphenyl)-3-(N-(3-(4,4-diphenylpiperidin-1-yl)propyl)carboxamido)-pyridine], in test [1] (setting [4]), the Ki is 1.45 µM. In test [2] (setting [5]), this compound showed a pKi of 6.13.

Consider `CCC1=C(C(=O)NC)C(c2ccc([N+](=O)[O-])cc2)C(C(=O)NCCCN2CCC(c3ccccc3)(c3ccccc3)CC2)=C(CC)N1` (stereo not shown) [Example 128, 2,6-Diethyl-1,4-dihydro-5-(N-methyl)carboxamido-4-(4-nitrophenyl)-3-{N-[3-(4,4-diphenylpiperidin-1-yl)propyl]}carboxamidopyridine], for which the Ki was 0.457 µM in test [1] (setting [4]) and 0.219 µM in test [2] (setting [5]).

Take `CCC1=C(C(=O)OCCC#N)C(c2ccc([N+](=O)[O-])cc2)C(C(=O)NCCCN2CCC(c3ccccc3)(c3ccccc3)CC2)=C(COC)N1` (stereo not shown) [Example 135]: the Ki was 0.661 µM in test [1] (setting [4]) and 0.339 µM in test [2] (setting [5]).

With `CCC1=C(C(=O)NCCCN2CCC(c3ccccc3)(c3ccccc3)CC2)C(c2ccc([N+](=O)[O-])cc2)C(C(=O)OC(C)(C)C)=C(COCCN=[N+]=[N-])N1` (stereo not shown) [Example 139], the Ki in test [1] (setting [4]) is 0.832 µM. Also, the pKi in test [2] (setting [5]) was 6.51.

Consider `CCC1=C(C(=O)OCCC#N)C(c2ccc([N+](=O)[O-])cc2)C(C(=O)NCCCN2CCC(c3ccccc3)(c3ccccc3)CC2)=C(COCCN=[N+]=[N-])N1` (stereo not shown) [Example 141], for which the Ki in test [1] (setting [4]) is 0.603 µM. Moreover, the pKi in test [2] (setting [5]) was 6.45.

`CCNC(=O)C1=C(COCCN=[N+]=[N-])NC(CC)=C(C(=O)NCCCN2CCC(c3ccccc3)(c3ccccc3)CC2)C1c1ccc([N+](=O)[O-])cc1` (stereo not shown) [Example 147, 2-((2-Azidoethyl)oxy)methyl-6-ethyl-3-(N-ethyl)carboxamido-1,4-dihydro-4-(4-nitro)phenyl-5-(N-(3-(4,4-diphenylpiperidin-1-yl-)propyl))carboxamidopyridine]: in test [1] (setting [4]), the Ki is 0.871 µM. In test [2] (setting [5]), this compound had a pKi of 6.60.

With `CCC1=C(C(=O)NCCCN2CCC(c3ccccc3)(c3ccccc3)CC2)C(c2ccc([N+](=O)[O-])cc2)C(C(N)=O)=C(COCCN=[N+]=[N-])N1` (stereo not shown) [Example 149, 2-((2-Azidoethyl)oxy)methyl-3-carboxamido-6-ethyl-1,4-dihydro-4-(4-nitro) phenyl-5-(N-(3-(4,4-diphenylpiperidin-1-yl)propyl))carboxamidopyridine], the Ki in test [1] (setting [4]) is 0.501 µM. In test [2] (setting [5]), this compound gave a pKi of 6.59.

As for `CCC1=C(C(=O)NCCCN2CCC(c3ccccc3)(c3ccccc3)CC2)C(c2ccc([N+](=O)[O-])cc2)C(C(=O)NC)=C(COCCN=[N+]=[N-])N1` (stereo not shown) [Example 151, 2-((2-Azidoethyl)oxy)methyl-6-ethyl-1,4-dihydro-3-(N-methyl)carboxamido-4-(4-nitro)phenyl-5-(N-(3-(4,4-diphenylpiperidin-1-yl)propyl))carboxamidopyridine], the Ki in test [1] (setting [4]) was 0.562 µM. In test [2] (setting [5]), this compound had a pKi of 6.68.
